Measured values taken from ChEMBL document CHEMBL3745707 (Bioorg Med Chem, 2016).

How the values were obtained:
K562 = test: cells; assay type: functional, cell-based; conditions: Homo sapiens, K562, 72 h
cells = assay type: functional, cell-based; conditions: Homo sapiens, DU-145, 72 h
[1] = target: Serine/threonine-protein kinase PLK2 (Homo sapiens, UniProt Q9NYY3); test: Inhibition of human recombinant PLK2 using recombinant dephosphorylated bovine alpha- casein as substrate after 30 mins by scintillation counting analysis in presence of gamma-32P-ATP
Serine/threonine-protein kinase PLK2, sequence (Q9NYY3 whole entry): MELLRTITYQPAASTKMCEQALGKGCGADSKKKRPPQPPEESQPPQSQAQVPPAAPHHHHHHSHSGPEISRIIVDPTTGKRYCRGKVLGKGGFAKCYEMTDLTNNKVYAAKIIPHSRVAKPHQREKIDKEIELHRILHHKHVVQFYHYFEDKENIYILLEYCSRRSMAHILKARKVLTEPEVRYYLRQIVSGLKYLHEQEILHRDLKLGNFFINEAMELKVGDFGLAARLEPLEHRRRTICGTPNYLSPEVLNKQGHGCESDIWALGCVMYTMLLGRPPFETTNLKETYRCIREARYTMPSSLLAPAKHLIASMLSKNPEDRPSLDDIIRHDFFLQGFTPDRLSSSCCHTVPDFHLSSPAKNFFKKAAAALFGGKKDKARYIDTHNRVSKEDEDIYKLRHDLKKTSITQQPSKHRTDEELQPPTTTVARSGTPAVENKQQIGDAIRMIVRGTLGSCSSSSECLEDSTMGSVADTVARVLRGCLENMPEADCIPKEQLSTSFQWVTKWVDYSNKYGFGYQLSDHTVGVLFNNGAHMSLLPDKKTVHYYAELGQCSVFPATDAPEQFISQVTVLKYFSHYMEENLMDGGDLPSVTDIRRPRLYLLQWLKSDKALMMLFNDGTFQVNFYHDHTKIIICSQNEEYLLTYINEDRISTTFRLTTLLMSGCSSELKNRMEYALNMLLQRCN

Row | Structure (SMILES) | IC50 (K562) [µM] | IC50 (cells) [µM] | IC50 [1] [µM]
1 | Cc1ccc(S(=O)(=O)c2cc3cnc(Nc4cnc5c(c4)CC(=O)N5)nc3n(C)c2=O)cc1 | 15 | 15 | –
2 | Cc1ccc(S(=O)(=O)c2cc3cnc(Nc4cnc5[nH]ccc5c4)nc3n(C)c2=O)cc1 | 15 | 25 | –
3 | Cn1c(=O)c(S(=O)(=O)c2ccc(F)cc2F)cc2cnc(Nc3ccncn3)nc21 | 30 | 50 | –
4 | Cn1c(=O)c(S(=O)(=O)c2ccc(Cl)cc2)cc2cnc(Nc3cnc4ccccc4c3)nc21 | 15 | 15 | –
5 | Cn1c(=O)c(S(=O)(=O)c2ccc(F)cc2F)cc2cnc(Nc3ccc4c(c3)CC(=O)N4)nc21 | 15 | 100 | –
6 | O=c1c(S(=O)(=O)c2ccc(F)cc2F)cc2cnc(Nc3ccc4[nH]ccc4c3)nc2n1CC1CCCC1 | 7 | 10 | –
7 | Cn1c(=O)c(S(=O)(=O)c2ccc(F)cc2)cc2cnc(Nc3ccc4cc[nH]c4c3)nc21 | 10 | 10 | –
8 | COc1ccc(Nc2ncc3cc(S(=O)(=O)c4ccc(C)cc4)c(=O)n(C)c3n2)cc1 | 75 | 100 | –
9 | Cn1c(=O)c(S(=O)(=O)c2ccc(F)cc2F)cc2cnc(Nc3ccccn3)nc21 | 35 | 75 | –
10 | O=c1[nH]c2nc(Nc3ccc4[nH]ccc4c3)ncc2cc1S(=O)(=O)c1ccc(F)cc1F | 15 | 15 | –
11 | Cn1c(=O)c(S(=O)(=O)c2ccc(F)cc2)cc2cnc(Nc3ccc4[nH]ncc4c3)nc21 | 10 | 5 | –
12 | Cc1ccc(S(=O)(=O)c2cc3cnc(Nc4ccc5cc[nH]c5c4)nc3n(C)c2=O)cc1 | 15 | 15 | –
13 | Cc1ccc(S(=O)(=O)c2cc3cnc(Nc4cccc5cccnc45)nc3n(C)c2=O)cc1 | 10 | 10 | –
14 | Cn1c(=O)c(S(=O)(=O)Nc2ccc(F)cc2)cc2cnc(Nc3ccc4[nH]ccc4c3)nc21 | 5 | 5 | –
15 | Cn1c(=O)c(S(=O)(=O)c2ccc(F)cc2F)cc2cnc(Nc3ccc4[nH]c(C(=O)O)cc4c3)nc21 | 10 | 10 | –
16 | Cn1c(=O)c(S(=O)(=O)c2ccc(Br)cc2)cc2cnc(Nc3ccc4[nH]ccc4c3)nc21 | 5 | 5 | –
17 | Cn1c(=O)c(S(=O)(=O)c2ccc(Cl)cc2)cc2cnc(Nc3cccc4[nH]ccc34)nc21 | 5 | 5 | –
18 | Cn1c(=O)c(S(=O)(=O)c2ccc(F)cc2F)cc2cnc(Nc3ccc4c(c3)C(=O)C(=O)N4)nc21 | 30 | 75 | –
19 | Cn1c(=O)c(S(=O)(=O)c2ccccc2)cc2cnc(Nc3ccc4cc[nH]c4c3)nc21 | 10 | 10 | –

Row | Structure (SMILES) | IC50 (K562) [µM] | IC50 (cells) [µM] | IC50 [1] [µM]
20 | Cc1ccc(S(=O)(=O)c2cc3cnc(Nc4ccc5ncccc5c4)nc3n(C)c2=O)cc1 | 10 | 10 | –
21 | Cn1c(=O)c(S(=O)(=O)c2ccc(F)cc2)cc2cnc(Nc3ccc4occc4c3)nc21 | 5 | 5 | –
22 | O=c1c(S(=O)(=O)c2ccc(F)cc2F)cc2cnc(Nc3ccc4[nH]ccc4c3)nc2n1C1CCCC1 | 5 | 5 | –
23 | Cn1c(=O)c(S(=O)(=O)c2ccc(F)cc2F)cc2cnc(Nc3ccc4occc4c3)nc21 | 15 | 15 | –
24 | Cn1c(=O)c(S(=O)(=O)c2ccc(Cl)cc2)cc2cnc(Nc3cnc4[nH]ccc4c3)nc21 | 5 | 5 | –
25 | Cn1c(=O)c(C(=O)Nc2ccc(F)cc2)cc2cnc(Nc3ccc4[nH]ccc4c3)nc21 | 5 | 5 | –
26 | COC(=O)Cn1c(=O)c(S(=O)(=O)c2ccc(F)cc2F)cc2cnc(Nc3ccc4[nH]ccc4c3)nc21 | 5 | 10 | –
27 | Cn1c(=O)c(S(=O)(=O)c2ccc(Cl)cc2)cc2cnc(Nc3ccc(Cl)cc3)nc21 | 15 | 15 | –
28 | Cn1c(=O)c(S(=O)(=O)c2ccc(F)cc2)cc2cnc(Nc3ccc4[nH]cnc4c3)nc21 | 10 | 10 | –
29 | Cn1c(=O)c(S(=O)(=O)c2ccc(F)cc2F)cc2cnc(NCc3ccc4[nH]ccc4c3)nc21 | 75 | 100 | –
30 | Cn1c(=O)c(S(=O)(=O)c2ccccc2)cc2cnc(Nc3ccc4ncccc4c3)nc21 | 100 | 50 | –
31 | Cn1c(=O)c(S(=O)(=O)c2ccc(F)cc2F)cc2cnc(Nc3ccc4[nH]ncc4c3)nc21 | 50 | 30 | –
32 | Cn1c(=O)c(C(=O)Nc2ccc(F)cc2F)cc2cnc(Nc3ccc4[nH]ccc4c3)nc21 | 5 | 5 | –
33 | COc1ccc(Nc2ncc3cc(S(=O)(=O)c4ccc(Cl)cc4)c(=O)n(C)c3n2)cc1 | 15 | 30 | –
34 | Cn1c(=O)c(S(=O)(=O)c2ccc(F)cc2F)cc2cnc(Nc3ccc4cccc(O)c4n3)nc21 | 5 | 5 | –
35 | Cn1c(=O)c(S(=O)(=O)Cc2ccc(F)cc2)cc2cnc(Nc3ccc4[nH]ccc4c3)nc21 | 30 | 30 | –
36 | O=c1c(S(=O)(=O)c2ccc(F)cc2F)cc2cnc(Nc3ccc4[nH]ccc4c3)nc2n1C1CCCCC1 | 10 | 10 | –
37 | Cn1c(=O)c(S(=O)(=O)c2ccc(C(=O)O)cc2)cc2cnc(Nc3ccc4[nH]ccc4c3)nc21 | 5 | 10 | –
38 | Cn1c(=O)c(S(=O)(=O)Nc2ccc(F)cc2F)cc2cnc(Nc3ccc4[nH]ccc4c3)nc21 | 5 | 5 | –

Next, values leading:

Row | IC50 (K562) [µM] | IC50 (cells) [µM] | IC50 [1] [µM] | Structure (SMILES)
39 | 5 | 5 | – | CN1CCN(c2ccc(Nc3ncc4cc(S(=O)(=O)c5ccc(F)cc5F)c(=O)n(C)c4n3)cc2)CC1
40 | 5 | 5 | – | COc1ccc(S(=O)(=O)c2cc3cnc(Nc4cccc5[nH]ccc45)nc3n(C)c2=O)cc1
41 | 5 | 1 | – | Cn1c(=O)c(S(=O)(=O)c2ccccc2)cc2cnc(Nc3cnc4[nH]ccc4c3)nc21
42 | 5 | 10 | – | Cc1ccc(S(=O)(=O)c2cc3cnc(Nc4cccc5[nH]ccc45)nc3n(C)c2=O)cc1
43 | 5 | 5 | – | COC(=O)Cn1ccc2cc(Nc3ncc4cc(S(=O)(=O)c5ccc(F)cc5F)c(=O)n(C)c4n3)ccc21
44 | 1.5 | 0.75 | – | Cn1c(=O)c(S(=O)(=O)c2ccc(F)cc2F)cc2cnc(Nc3cccc4[nH]ccc34)nc21
45 | 0.75 | 0.5 | – | Cn1c(=O)c(S(=O)(=O)c2ccc(F)cc2)cc2cnc(Nc3cnc4[nH]ccc4c3)nc21
46 | 0.5 | 0.5 | – | O=c1c(S(=O)(=O)c2ccc(F)cc2F)cc2cnc(Nc3ccc4[nH]ccc4c3)nc2n1C1CC1
47 | 0.1 | 0.25 | – | Cn1c(=O)c(S(=O)(=O)c2ccc(Cl)cc2)cc2cnc(Nc3ccc4[nH]ccc4c3)nc21
48 | 1 | 1 | – | Cn1c(=O)c(S(=O)(=O)Cc2ccc(F)cc2F)cc2cnc(Nc3ccc4[nH]ccc4c3)nc21
49 | 5 | 5 | – | Cn1c(=O)c(S(=O)(=O)c2ccc(F)cc2F)cc2cnc(Nc3ccc4cc[nH]c4c3)nc21
50 | 0.9 | 1.5 | – | Cn1c(=O)c(S(=O)(=O)c2ccc(F)cc2[N+](=O)[O-])cc2cnc(Nc3ccc4[nH]ccc4c3)nc21
51 | 0.3 | 0.5 | 0.35 | COc1ccc(S(=O)(=O)c2cc3cnc(Nc4ccc5[nH]ccc5c4)nc3n(C)c2=O)cc1
52 | 0.75 | 0.75 | – | Cc1ccc(S(=O)(=O)c2cc3cnc(Nc4ccc5[nH]ccc5c4)nc3n(C)c2=O)cc1
53 | 0.75 | 0.75 | – | Cn1ccc2cc(Nc3ncc4cc(S(=O)(=O)c5ccc(F)cc5F)c(=O)n(C)c4n3)ccc21
54 | 0.75 | 0.75 | – | CCn1c(=O)c(S(=O)(=O)c2ccc(F)cc2F)cc2cnc(Nc3ccc4[nH]ccc4c3)nc21
55 | 1 | 5 | 1.23 | Cn1c(=O)c(S(=O)(=O)c2ccccc2)cc2cnc(Nc3ccc4[nH]ccc4c3)nc21
56 | 0.75 | 0.75 | – | Cc1cc2cc(Nc3ncc4cc(S(=O)(=O)c5ccc(F)cc5F)c(=O)n(C)c4n3)ccc2[nH]1
57 | 0.75 | 0.75 | 6.08 | Cn1c(=O)c(S(=O)(=O)c2ccc(F)cc2)cc2cnc(Nc3cccc4[nH]ccc34)nc21
58 | 0.5 | 0.5 | – | Cn1c(=O)c(S(=O)(=O)c2ccc(F)cc2F)cc2cnc(Nc3ccc4sccc4c3)nc21
59 | 1 | 1 | – | Cn1c(=O)c(S(=O)(=O)c2ccc(Cl)cc2Cl)cc2cnc(Nc3ccc4[nH]ccc4c3)nc21
60 | 0.75 | 0.75 | – | Cn1ccc2cc(Nc3ncc4cc(S(=O)(=O)c5ccc(Cl)cc5Cl)c(=O)n(C)c4n3)ccc21
61 | 1 | 1 | – | O=c1c(S(=O)(=O)c2ccc(F)cc2F)cc2cnc(Nc3ccc4[nH]ccc4c3)nc2n1CC1CC1
62 | 1 | 1 | – | CCCn1c(=O)c(S(=O)(=O)c2ccc(F)cc2F)cc2cnc(Nc3ccc4[nH]ccc4c3)nc21
63 | 1.5 | 8 | – | Cn1c(=O)c(S(=O)(=O)c2ccc(N)cc2F)cc2cnc(Nc3ccc4[nH]ccc4c3)nc21
64 | 0.2 | 0.4 | – | Cn1c(=O)c(S(=O)(=O)c2ccc([N+](=O)[O-])cc2F)cc2cnc(Nc3ccc4[nH]ccc4c3)nc21
65 | 2 | 3 | – | Cn1c(=O)c(S(=O)(=O)c2ccc(F)cc2N)cc2cnc(Nc3ccc4[nH]ccc4c3)nc21
66 | 0.75 | 0.75 | – | Cn1c(=O)c(S(=O)(=O)c2ccc(F)cc2F)cc2cnc(Nc3cnc4[nH]ccc4c3)nc21
